From patent US6372777B1, “Cyclic AMP-specific phosphodiesterase inhibitors” (ICOS Corporation, priority 1999, dated 2002)

Target: T1, human recombinant PDE4 (Homo sapiens, UniProt Q07343)
T1 construct: made in house; host or cells: Saccharomyces cerevisiae BJ2-54 (strain YI23 harboring HDUN2.32, if PDE4B)
Experiment: Inhibition of human recombinant PDE4 (IC50)
Assay type: biochemical

T1 sequence (Q07343 1-564 isoform Q07343-2): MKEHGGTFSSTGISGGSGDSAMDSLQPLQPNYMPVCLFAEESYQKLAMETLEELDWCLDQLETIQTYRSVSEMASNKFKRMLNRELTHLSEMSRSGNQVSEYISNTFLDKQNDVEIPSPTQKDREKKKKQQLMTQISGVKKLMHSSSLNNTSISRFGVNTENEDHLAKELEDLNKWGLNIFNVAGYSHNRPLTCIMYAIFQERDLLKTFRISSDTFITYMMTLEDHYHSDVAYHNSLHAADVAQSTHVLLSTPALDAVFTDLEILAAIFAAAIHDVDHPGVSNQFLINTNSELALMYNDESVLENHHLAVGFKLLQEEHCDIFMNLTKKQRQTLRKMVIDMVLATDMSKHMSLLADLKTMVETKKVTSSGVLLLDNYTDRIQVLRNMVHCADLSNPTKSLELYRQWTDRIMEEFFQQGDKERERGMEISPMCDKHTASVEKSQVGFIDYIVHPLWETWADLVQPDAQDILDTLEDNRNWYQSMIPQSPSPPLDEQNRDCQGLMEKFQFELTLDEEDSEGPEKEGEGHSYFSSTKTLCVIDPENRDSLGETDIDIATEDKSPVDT

Row | SMILES | IC50 [µM]
1 | CCOC(=O)c1cc(-c2ccccc2)n(-c2cccc(N(C)C)c2)c1C [Example 1, 1-(3-Dimethylaminophenyl)-2-methyl-5-phenyl-1H-pyrrole-3-carboxylic acid ethyl ester] | 8.22
2 | CCOC(=O)c1cc(C)n(-c2cccc(Cl)c2)c1-c1ccccc1 [Example 2, 1-(3-Chlorophenyl)-5-methyl-2-phenyl-1H-pyrrole-3-carboxylic acid ethyl ester] | 5.45
3 | CCOC(=O)c1cc(C)n(-c2cccc(C)c2)c1-c1ccccc1 [Example 4, 5-Methyl-2-phenyl-1-m-tolyl-1H-pyrrole-3-carboxylic acid ethyl ester] | 2.9
4 | CCOC(=O)c1cc(-c2ccccc2)n(-c2cccc(C)c2)c1C [Example 5, 2-Methyl-5-phenyl-l-m-tolyl-1H-pyrrole-3-carboxylic acid ethyl ester] | 6.1
5 | CCOC(=O)c1cc(C)n(-c2cccc(Br)c2)c1-c1ccccc1 [Example 6, 1-(3-Bromophenyl)-5-methyl-2-phenyl-1H-pyrrole-3-carboxylic acid ethyl ester] | 8.55
6 | CCOC(=O)c1cc(C)n(-c2cccc(C(C)=O)c2)c1-c1ccccc1 [Example 7, 1-(3-Acetylphenyl)-5-methyl-2-phenyl-1H-pyrrole-3-carboxylic acid ethyl ester] | 6.83
7 | CCOC(=O)c1cc(-c2ccccc2)n(-c2cccc(C(C)=O)c2)c1C [Example 8, 1-(3-Acetylphenyl)-2-methyl-5-phenyl-1H-pyrrole-3-carboxylic acid ethyl ester] | 0.59
8 | CCOC(=O)c1cc(C)n(-c2cccc(S(C)(=O)=O)c2)c1-c1ccccc1 [Example 9, 1-(3-Methanesulfonylphenyl)-5-methyl-2-phenyl-1H-pyrrole-3-carboxylic acid ethyl ester] | 4.58
9 | CCOC(=O)c1cc(-c2ccccc2)n(-c2cccc(S(C)(=O)=O)c2)c1C [Example 10, 1-(3-Methanesulfonylphenyl)-2-methyl-5-phenyl-1H-pyrrole-3-carboxylic acid ethyl ester] | 4.38
10 | CCOC(=O)c1cc(-c2ccccc2)n(-c2cccc(C(N)=O)c2)c1C [Example 11, 1-(3-Carbamoylphenyl)-2-methyl-5-phenyl-1H-pyrrole-3-carboxylic acid ethyl ester] | 5.45
11 | CCOC(=O)c1cc(C)n(-c2cccc(C(N)=O)c2)c1-c1ccccc1 [Example 12, 1-(3-Carbamoylphenyl)-5-methyl-2-phenyl-1H-pyrrole-3-carboxylic acid ethyl ester] | 0.22
12 | CCOC(=O)c1cc(C)n(-c2cccc(N(C)C)c2)c1-c1ccccc1 [Example 13, 1-(3-Dimethylaminophenyl)-5-methyl-2-phenyl-1H-pyrrole-3-carboxylic acid ethyl ester] | 0.15
13 | CCOC(=O)c1cc(C)n(-c2cccc(F)c2)c1-c1ccccc1 [Example 17, 1-(3-Fluorophenyl)-5-methyl-2-phenyl-1H-pyrrole-3-carboxylic acid ethyl ester] | 13.2
14 | CCOC(=O)c1cc(-c2ccccc2)n(-c2cccc(F)c2)c1C [Example 18, 1-(3-Fluorophenyl)-2-methyl-5-phenyl-1H-pyrrole-3-carboxylic acid ethyl ester] | 0.62
15 | CCOC(=O)c1cc(-c2ccccc2)n(-c2cccnc2)c1C [Example 19, 2-Methyl-5-phenyl-1-pyridin-3-yl-1H-pyrrole-3-carboxylic acid ethyl ester] | 1.28
16 | CCOC(=O)c1cc(-c2ccccc2)n(C2CCCCC2)c1C [Example 20, 1-Cyclohexyl-2-methyl-5-phenyl-1H-pyrrole-3-carboxylic acid ethyl ester] | 0.99
17 | CCOC(=O)c1cc(C)n(-c2ccc([N+](=O)[O-])cn2)c1-c1ccccc1 [Example 23, 5-Methyl-1-(5-nitropyridin-2-yl)-2-phenyl-1H-pyrrole-3-carboxylic acid ethyl ester] | 133

Other lines, results leading:

Row | IC50 [µM] | SMILES
18 | 16.5 | CCOC(=O)c1cc(C)n(-c2cccc(C(=O)O)c2)c1-c1ccccc1 [Example 24, 1-(3-Carboxyphenyl)-5-methyl-2-phenyl-1H-pyrrole-3-carboxylic acid ethyl ester]
19 | 3.07 | CCOC(=O)c1cc(-c2ccccc2)n(-c2cccc(Br)c2)c1C [Example 26, 1-(3-Bromophenyl)-2-methyl-5-phenyl-1H-pyrrole-3-carboxylic acid ethyl ester]
20 | 2.28 | CCOC(=O)c1cc(-c2ccccc2)n(-c2cccc(C(F)(F)F)c2)c1C [Example 28, 2-Methyl-5-phenyl-1-(3-trifluoro-methylphenyl)-1H-pyrrole-3-carboxylic acid ethyl ester]
21 | 6.78 | CCOC(=O)c1cc(C)n(-c2cccc(C(F)(F)F)c2)c1-c1ccccc1 [Example 29, 5-Methyl-2-phenyl-1-(3-trifluoro-methylphenyl)-1H-pyrrole-3-carboxylic acid ethyl ester]
22 | 13.4 | CCOC(=O)c1cc(-c2ccccc2)n(Cc2cccc([N+](=O)[O-])c2)c1C [Example 30, 2-Methyl-1-(3-nitrobenzyl)-5-phenyl-1H-pyrrole-3-carboxylic acid ethyl ester]
23 | 5.13 | CCOC(=O)c1cc(C)n(Cc2cccc([N+](=O)[O-])c2)c1-c1ccccc1 [Example 31, 5-Methyl-1-(3-nitrobenzyl)-2-phenyl-1H-pyrrole-3-carboxylic acid ethyl ester]
24 | 13.4 | CCOC(=O)c1cc(C)n(-c2cccnc2)c1-c1ccccc1 [Example 32, 5-Methyl-2-phenyl-1-pyridin-3-yl-1H-pyrrole-3-carboxylic acid ethyl ester]
25 | 1.4 | CCOC(=O)c1cc(-c2ccccc2)n(-c2ccc([N+](=O)[O-])cc2)c1C [Example 33, 2-Methyl-1-(4-nitrophenyl) -5-phenyl-1H-pyrrole-3-carboxylic acid ethyl ester]
26 | 1.65 | CCOC(=O)c1cc(-c2ccccc2)n(-c2ccccc2[N+](=O)[O-])c1C [Example 34, 2-Methyl-1-(2-nitrophenyl)-5-phenyl-1H-pyrrole-3-carboxylic acid ethyl ester]
27 | 5.74 | CCOC(=O)c1cc(-c2ccccc2)n(-c2ccc([N+](=O)[O-])cn2)c1C [Example 35, 2-Methyl-1-(5-nitropyridin-2-yl)-5-phenyl-1H-pyrrole-3-carboxylic acid ethyl ester]
28 | 110 | CCOC(=O)c1cc(C)n(-c2ccc([N+](=O)[O-])cc2)c1-c1ccccc1 [Example 36, 5-Methyl-1-(4-nitrophenyl)-2-phenyl-1H-pyrrole-3-carboxylic acid ethyl ester]
29 | 16 | CCOC(=O)c1cc(C)n(-c2ccc(N)cc2)c1-c1ccccc1 [Example 37, 1-(4-Aminophenyl)-5-methyl-2-phenyl-1H-pyrrole-3-carboxylic acid ethyl ester]
30 | 1.3 | CCOC(=O)c1cc(-c2ccccc2)n(-c2ccc(N)cc2)c1C [Example 38, 1-(4-Aminophenyl)-2-methyl-5-phenyl-1H-pyrrole-3-carboxylic acid ethyl ester]
31 | 0.2 | CCOC(=O)c1cc(C)n(-c2cccc([N+](=O)[O-])c2)c1-c1ccccc1 [Example 39, 1-(3-Nitrophenyl)-5-methyl-2-phenyl-1H-pyrrole-3-carboxylic acid ethyl ester]
32 | 1.42 | CCOC(=O)c1cc(-c2ccccc2)n(-c2cccc(N)c2)c1C [Example 41, 1-(3-Aminophenyl)-2-methyl-5-phenyl-1H-pyrrole-3-carboxylic acid ethyl ester]
